Earlier results in patent publication US20050164162A1, “Methods for multiple parameters screening and evolution of cells to produce small molecules with multiple functionalities” (EVOLVA LTD., C/O DR. IUR. MARTIN EISENRING, priority 2002, published 2005).

Tests used:
colorectal cancer = details: persons who regularly use Aspirin and other NSAIDs; population-based studies
[1] = co-administration of retinoids (LG100268)+TZDs; clinical studies

## CC(=O)Oc1ccccc1C(=O)O [Aspirin]
Colorectal cancer
  decrease in relative risk for colorectal cancer: 40-50%

## Cc1cc2c(cc1C1(c3ccc(C(=O)O)cn3)CC1)C(C)(C)CCC2(C)C [LG100268]
[1]
  increases insulin sensitivity and glucose uptake: 60%
